# Measured values as given in paper PMC5619819, “A highly-sensitive high throughput assay for dynamin's basal GTPase activity” (PLoS ONE, 2017).
# Where “and” joins values, the source holds several entries; their conditions need not be identical. Equal values may be shown once. Entries after “also recorded” stand apart in the source; their conditions may differ.
# Columns and labels:
# Dynamin-1 (Dyn1) [1] = molecular target: T1, Dynamin-1 (Dyn1) (Homo sapiens, UniProt Q05193); experiment: Lipid nanotube (NT)-stimulated GTPase activity, malachite green assay; type: biochemical; conditions: 100 nM Dyn1, 300 μM lipid nanotubes, 25 μM GTP, 37°C; read-out: IC50, inhibition of NT-stimulated GTPase activity of Dyn1
# T1 construct: made in house; host or cells: Sf9 (Spodoptera frugiperda) insect cells
# T1 sequence (Q05193 1-864): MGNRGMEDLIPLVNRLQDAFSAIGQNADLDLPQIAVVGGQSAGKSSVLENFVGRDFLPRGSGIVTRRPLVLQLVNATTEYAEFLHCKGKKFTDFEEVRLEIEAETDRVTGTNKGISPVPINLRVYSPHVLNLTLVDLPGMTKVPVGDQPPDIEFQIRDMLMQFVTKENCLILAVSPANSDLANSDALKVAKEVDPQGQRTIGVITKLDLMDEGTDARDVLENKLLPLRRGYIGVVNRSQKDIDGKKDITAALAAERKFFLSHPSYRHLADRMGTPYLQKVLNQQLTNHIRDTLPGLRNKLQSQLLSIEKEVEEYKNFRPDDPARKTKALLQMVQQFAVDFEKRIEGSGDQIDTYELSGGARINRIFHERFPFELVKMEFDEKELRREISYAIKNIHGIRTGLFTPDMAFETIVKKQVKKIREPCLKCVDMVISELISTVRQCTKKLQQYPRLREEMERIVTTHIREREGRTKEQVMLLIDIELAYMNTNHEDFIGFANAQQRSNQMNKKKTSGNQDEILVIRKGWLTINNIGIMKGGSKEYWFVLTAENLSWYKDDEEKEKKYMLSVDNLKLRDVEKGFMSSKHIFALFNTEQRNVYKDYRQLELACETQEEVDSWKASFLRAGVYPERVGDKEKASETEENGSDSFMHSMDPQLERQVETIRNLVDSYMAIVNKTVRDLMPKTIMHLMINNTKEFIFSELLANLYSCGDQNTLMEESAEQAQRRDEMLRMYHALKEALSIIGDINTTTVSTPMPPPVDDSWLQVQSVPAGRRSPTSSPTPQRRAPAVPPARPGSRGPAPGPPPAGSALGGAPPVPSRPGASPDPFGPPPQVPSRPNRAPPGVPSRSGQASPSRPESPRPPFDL
# Experimental: The lipid nanotube (NT)-stimulated malachite green assays were performed in 96-well plates at 37°C. The final reaction consisted of 100 nM Dyn1, 25 μM GTP, and 300 μM lipid nanotubes. The assay and reagent preparations were performed according to our published protocol. All general chemicals were purchased from Sigma-Aldrich (St. Louis, MO). Compounds tested in the malachite green assay were purchased from Chembridge and ChemDiv (both located in San Diego, CA).
# Compound 24 was compared with the two commercially available dynamin inhibitors, Dynasore and Dyngo-4a, in a dose-response assay measuring inhibition of basal GTPase activity under high salt (150 mM KCl) conditions. The concentration of inhibitors ranged from 1 nM to 100 μM. […] Therefore, to more closely parallel previous studies we tested both commercial inhibitors in comparison to compound 24 for their effects on dynamin’s stimulated GTPase activity. Assays were performed in the presence of PI(4,5)P2-containing lipid nanotubes (NT), whose diameter (~ 20 nm) resembles the neck of an invaginated coated pit, using the malachite green assay.
# Dynamin-1 (Dyn1) [2] = molecular target: T1, Dynamin-1 (Dyn1); experiment: Transcreener GDP fluorescence polarization assay, basal GTPase activity; type: biochemical; conditions: for inhibition of basal GTPase activity (result in words): high salt (150 mM KCl), inhibitor 1 nM to 100 μM
# Experimental: Dynamin-1 (Dyn1) was expressed in Sf9 (Spodoptera frugiperda, GIBCO-BRL, Gaithersburg, MD) insect cells and purified by affinity chromatography, as previously described. Nucleotide-free protein aliquots were stored in assay buffer containing 20 mM HEPES, 150 mM KCl, 1 mM EDTA, 1 mM EGTA and 1 mM DTT at pH 7.4. The aliquots were flash frozen in liquid nitrogen and stored in -80°C in 5% v/v glycerol. Prior to running assays, frozen aliquots of Dyn1 were thawed and centrifuged at 100,000 g for 15 minutes to remove any aggregates. Dyn1 concentration was determined by measuring its absorbance at 280 nm with a UV/Vis spectrophotometer (Beckman Coulter Inc.) using a molar absorptivity coefficient of 73,800 M^-1 cm^-1.
# The Transcreener® GDP FP (BellBrook Labs) assay is an immune-competition assay based on a mouse monoclonal antibody that selectively binds Alexa633-conjugated GDP over GTP. The preformed Alexa633-GDP antibody complex is added at the end of the reaction, and the GDP generated displaces bound Alexa633 fluorescent tracer, resulting in a decrease in its far-red fluorescence polarization (FP). The assay detects GDP production with high sensitivity at low substrate concentrations and has been used to develop an HTS compatible assay for the enzymatic activity of ARFGAP [20]. Stocks of 5 mM GTP, 10x Stop & Detect Buffer B, 400 nM GDP Alexa633 Tracer, and 3100 μg/mL GDP antibody were purchased from BellBrook Labs (Madison, WI). Assays were performed in Corning 384-well plates at room temperature.
# All assays were conducted in the endpoint format, which measures total GDP production after 60 minutes of incubation at room temperature. […] The plate was then read for fluorescence polarization in millipolarization units (mP) using an EnVision multi-modal microplate reader (PerkinElmer, Inc.). […]
# For the confirmation screen and dose response curves, the data were analyzed by normalizing the sample GDP released to the control GDP released using the following equation: normalizedGTPaseactivity=sampleGDPreleased/controlGDPreleased×100 (4)
# dynamin = conditions: low salt, 20 nM dynamin; read-out: IC50, stimulated GTPase activity, sonicated PS liposomes; cited from earlier work
# [3] = system: triple dynamin-1, 2, and 3 knockout cells; set-up: method as in PMID 24046449; conditions: cited from earlier work
smiles,measurement,setting,value
O=C(N/N=C/c1ccc(O)c(O)c1)c1cc2ccccc2cc1O [Dynasore],IC50,Dynamin-1 (Dyn1) [1],83.5 µM
same,inhibition of basal GTPase activity (result in words),Dynamin-1 (Dyn1) [2],do not appear to inhibit basal GTPase activity even at high concentrations; also recorded: neither was able to inhibit basal GTPase activity
same,IC50,dynamin,0.4 µM
same,inhibition of endocytosis (result in words),[3],continue to inhibit endocytosis
O=C(N/N=C/c1cc(O)c(O)cc1O)c1cc2ccccc2cc1O [Dyngo-4a],IC50,Dynamin-1 (Dyn1) [1],45.4 µM
same,inhibition of basal GTPase activity (result in words),Dynamin-1 (Dyn1) [2],do not appear to inhibit basal GTPase activity even at high concentrations; also recorded: neither was able to inhibit basal GTPase activity
same,IC50,dynamin,12 µM
same,inhibition of endocytosis (result in words),[3],continue to inhibit endocytosis
CN(C)c1ccc(/C=C/C=C2/SC(=S)NC2=O)cc1 [compound 24],IC50,Dynamin-1 (Dyn1) [1],6.4 µM and ~6 µM
same,IC50,"Dynamin-1 (Dyn1) [2]; 50 nM Dyn1, 10 μM GTP, 60 min, room temperature, 11-point dose response 1 nM to 100 μM, read-out: IC50, inhibition of basal GTPase activity of Dyn1",0.58 µM and ~0.6 µM
